{
  "source": "paper PMC6008299",
  "about": "“Impact of race on dose selection of molecular-targeted agents in early-phase oncology trials” (British Journal of Cancer, 2018)",
  "assay": "Pharmacokinetics, both studies",
  "assay_type": "in vivo, human",
  "from_the_text": "In both studies, the PK profile of DS-7423 was characterised during cycle 1 on days 1 and 8. […] The data cut-off for the primary analysis occurred after all patients had either discontinued the study or completed 6 months of study drug treatment. Descriptive statistics were provided for selected demographic, safety, PK, and PD data by dose and time as appropriate. Descriptive statistics on continuous data included means, medians, standard deviations, and ranges, while categorical data were summarised using frequency counts and percentages. No inferential analysis to compare dose levels was performed due to limited sample sizes. The WinNonlin software was used for PK analysis.",
  "data": [
    {"smiles": "CC(=O)N1CCN(c2nc3c(N4CCOCC4)nc(-c4cnc(N)nc4)nc3n2CC(F)(F)F)C[C@H]1C", "note": "[DS-7423]", "values": [
      {"measurement": "median half-life", "setting": "240-mg dose (MTD)", "value": 12, "unit": "h"},
      {"measurement": "Difference in AUC and Cmax between the two populations", "setting": "MTD of 240 mg, Caucasian vs Asian", "value": "no significant differences"},
      {"measurement": "median time to peak concentration (Tmax)", "setting": "across dose groups", "value": "2 to 4", "unit": "h"},
      {"measurement": "Drug accumulation", "setting": "predose concentrations days 15 and 21 of cycle 1 and day 1 of cycle 2", "value": "no remarkable drug accumulation"}
    ]}
  ]
}
